According to PubChem BioAssay AID248 (DTP/NCI, 2004):
Several values for one entry are separate records, joined by “and”; a condition that tells them apart may be missing. Equal values may be shown once. Toxic doses and inconclusive results are not listed.

System: L1210 leukemia ip in BDF1 mice, survival T/C
Experiment: NCI In Vivo Anticancer Drug Screen. Data for tumor model L1210 Leukemia (intraperitoneal) in B6D2F1 (BDF1) mice
Settings: endpoint: mean survival time, higher = longer survival
Outline: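 Ratio derived from survival: compound-dosed mice over vehicle-dosed mice, all bearing a transplantable tumor.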

[1] = dose: 100.0 mg/kg/injection, schedule: Q01DX001 (ip), vehicle: carboxymethylcellulose (CMC)
[2] = dose: 400.0 mg/kg/injection, schedule: Q01DX001 (ip), vehicle: carboxymethylcellulose (CMC)
[3] = dose: 100.0 mg/kg/injection, schedule: Q01DX009 (ip), vehicle: Klucel (hydroxypropylcellulose) (HPC)
[4] = dose: 100.0 mg/kg/injection, schedule: Q04DX003 (ip), vehicle: Klucel (hydroxypropylcellulose) (HPC)
[5] = dose: 200.0 mg/kg/injection, schedule: Q01DX009 (ip), vehicle: Klucel (hydroxypropylcellulose) (HPC)
[6] = dose: 200.0 mg/kg/injection, schedule: Q04DX003 (ip), vehicle: Klucel (hydroxypropylcellulose) (HPC)
[7] = dose: 400.0 mg/kg/injection, schedule: Q01DX009 (ip), vehicle: Klucel (hydroxypropylcellulose) (HPC)
[8] = dose: 400.0 mg/kg/injection, schedule: Q04DX003 (ip), vehicle: Klucel (hydroxypropylcellulose) (HPC)
[9] = dose: 100.0 mg/kg/injection, schedule: Q01DX001 (ip), vehicle: saline
[10] = dose: 200.0 mg/kg/injection, schedule: Q01DX001 (ip), vehicle: saline
[11] = dose: 400.0 mg/kg/injection, schedule: Q01DX001 (ip), vehicle: saline
[12] = dose: 100.0 mg/kg/injection, schedule: Q04DX002 (ip), vehicle: Klucel (hydroxypropylcellulose) (HPC)
[13] = dose: 200.0 mg/kg/injection, schedule: Q04DX002 (ip), vehicle: Klucel (hydroxypropylcellulose) (HPC)
[14] = dose: 400.0 mg/kg/injection, schedule: Q04DX002 (ip), vehicle: Klucel (hydroxypropylcellulose) (HPC)
[15] = dose: 100.0 mg/kg/injection, schedule: Q04DX003 (ip), vehicle: saline
[16] = dose: 200.0 mg/kg/injection, schedule: Q04DX003 (ip), vehicle: saline
[17] = dose: 400.0 mg/kg/injection, schedule: Q04DX003 (ip), vehicle: saline

In the case of `COc1ccc(-c2c(CC(=O)O)c3cc(OC)ccc3n2Cc2ccc(Cl)cc2)cc1`, the T/C (dose: 65.0 mg/kg/injection, schedule: Q01DX Z (ip), vehicle: carboxymethylcellulose (CMC)) is reported as 94 % of control, the T/C (dose: 125.0 mg/kg/injection, schedule: Q01DX Z (ip), vehicle: carboxymethylcellulose (CMC)) is reported as 98 % of control and the T/C (dose: 250.0 mg/kg/injection, schedule: Q01DX Z (ip), vehicle: carboxymethylcellulose (CMC)) is reported as 107 % of control. For the same compound, the T/C (dose: 500.0 mg/kg/injection, schedule: Q01DX Z (ip), vehicle: carboxymethylcellulose (CMC)) was 94 % of control, the T/C (dose: 750.0 mg/kg/injection, schedule: Q01DX Z (ip), vehicle: carboxymethylcellulose (CMC)) was 90 % of control and the T/C (dose: 875.0 mg/kg/injection, schedule: Q01DX Z (ip), vehicle: carboxymethylcellulose (CMC)) was 91 % of control.
With `CCOC(=O)NC(NC(=O)OCC)c1ccc(Cl)cc1Cl` the T/C [1] was 88 % of control and the T/C [2] was 88 % of control.
`[Br][Hg][c]1ccccc1` was tested, and the T/C (dose: 75.0 mg/kg/injection, schedule: Q01DX001 (ip), vehicle: carboxymethylcellulose (CMC)) was 108 % of control.
For `NC(CS)=NC1CCCC1`, the T/C (dose: 12.5 mg/kg/injection, schedule: Q04DX003 (ip), vehicle: saline) was 108 % of control, the T/C (dose: 25.0 mg/kg/injection, schedule: Q04DX003 (ip), vehicle: saline) was 115 % of control and the T/C (dose: 50.0 mg/kg/injection, schedule: Q04DX003 (ip), vehicle: saline) was 112 % of control.
`Cc1cccc(NC(=O)c2ccc(Cl)c(Cl)c2)c1C` was tested, and the T/C [3] was 94 % of control, the T/C [4] was 93 % of control and the T/C [5] was 88 % of control. For the same compound, the T/C [6] was 91 % of control, the T/C [7] was 88 % of control and the T/C [8] was 95 % of control.
In the case of `Cc1ccc(NC(=O)Nc2ccc(Nc3ccccc3)cc2)c([N+](=O)[O-])c1`, the T/C [4] is reported as 94 % of control, the T/C [6] is reported as 90 % of control and the T/C [8] is reported as 90 % of control.
In the case of `CCC(CO)ON=C(C)C` (stereo not given), the T/C [9] is reported as 104 % of control, the T/C [10] is reported as 104 % of control and the T/C [11] is reported as 102 % of control.
With `CC1CCC(C(=O)O)ON1` (stereo not given) the T/C (dose: 100.0 mg/kg/injection, schedule: Q04DX002 (ip), vehicle: saline) was 114 % of control, the T/C (dose: 200.0 mg/kg/injection, schedule: Q04DX002 (ip), vehicle: saline) was 95 % of control and the T/C (dose: 400.0 mg/kg/injection, schedule: Q04DX002 (ip), vehicle: saline) was 100 % of control.
For `CCOC(=O)C1CC(C(=O)OCC)c2nc3ccccc3nc21` (stereo not given), the T/C (dose: 50.0 mg/kg/injection, schedule: Q01DX001 (ip), vehicle: other) was 88 % of control, the T/C (dose: 100.0 mg/kg/injection, schedule: Q01DX001 (ip), vehicle: other) was 92 % of control and 86 % of control and the T/C (dose: 200.0 mg/kg/injection, schedule: Q01DX001 (ip), vehicle: other) was 89 % of control. For the same compound, the T/C (dose: 400.0 mg/kg/injection, schedule: Q01DX001 (ip), vehicle: other) was 92 % of control.
`C/C(=N/N(C)C)c1ccc(Br)cc1` was tested, and the T/C (dose: 6.25 mg/kg/injection, schedule: Q01DX009 (ip), vehicle: saline) was 100 % of control, the T/C (dose: 12.5 mg/kg/injection, schedule: Q01DX009 (ip), vehicle: saline) was 94 % of control and the T/C (dose: 25.0 mg/kg/injection, schedule: Q01DX009 (ip), vehicle: saline) was 92 % of control. The T/C (dose: 50.0 mg/kg/injection, schedule: Q01DX009 (ip), vehicle: Klucel (hydroxypropylcellulose) (HPC)) was 108 % of control.
In the case of `O=C(Nc1ccccc1)Nc1ccc([N+](=O)[O-])cc1`, the T/C [3] is reported as 91 % of control, the T/C (dose: 100.0 mg/kg/injection, schedule: Q04DX003 (ip), vehicle: other) is reported as 93 % of control and the T/C [5] is reported as 96 % of control. For the same compound, the T/C (dose: 200.0 mg/kg/injection, schedule: Q04DX003 (ip), vehicle: other) was 100 % of control, the T/C [7] was 86 % of control and the T/C (dose: 400.0 mg/kg/injection, schedule: Q04DX003 (ip), vehicle: other) was 100 % of control.
For `Fc1ccc(NC(=S)Nc2ccc(F)cc2)cc1`, the T/C (dose: 15.0 mg/kg/injection, schedule: Q01DX Z (ip), vehicle: carboxymethylcellulose (CMC)) was 98 % of control, the T/C (dose: 30.0 mg/kg/injection, schedule: Q01DX Z (ip), vehicle: carboxymethylcellulose (CMC)) was 101 % of control and the T/C (dose: 50.0 mg/kg/injection, schedule: Q01DX001 (ip), vehicle: saline) was 117 % of control. The T/C (dose: 60.0 mg/kg/injection, schedule: Q01DX Z (ip), vehicle: carboxymethylcellulose (CMC)) was 101 % of control and 104 % of control, the T/C [9] was 113 % of control and the T/C (dose: 120.0 mg/kg/injection, schedule: Q01DX Z (ip), vehicle: carboxymethylcellulose (CMC)) was 101 % of control and 106 % of control. The T/C [10] was 120 % of control, the T/C (dose: 240.0 mg/kg/injection, schedule: Q01DX Z (ip), vehicle: carboxymethylcellulose (CMC)) was 100 % of control and the T/C (dose: 240.0 mg/kg/injection, schedule: Q01DX Z (oral), vehicle: carboxymethylcellulose (CMC)) was 95 % of control. The T/C (dose: 480.0 mg/kg/injection, schedule: Q01DX Z (ip), vehicle: carboxymethylcellulose (CMC)) was 106 % of control, the T/C (dose: 480.0 mg/kg/injection, schedule: Q01DX Z (oral), vehicle: carboxymethylcellulose (CMC)) was 104 % of control and the T/C (dose: 960.0 mg/kg/injection, schedule: Q01DX Z (oral), vehicle: carboxymethylcellulose (CMC)) was 107 % of control. The T/C (dose: 1920.0 mg/kg/injection, schedule: Q01DX Z (oral), vehicle: carboxymethylcellulose (CMC)) was 100 % of control.
With `CNc1cccc2c1C(=O)c1ccccc1C2=O` the T/C [12] was 96 % of control, the T/C [13] was 92 % of control and the T/C [14] was 96 % of control.
For `CC(O)C(=O)OCCOc1ccc(Cl)cc1Cl` (stereo not given), the T/C (dose: 50.0 mg/kg/injection, schedule: Q01DX009 (ip), vehicle: saline) was 670 % of control, the T/C (dose: 100.0 mg/kg/injection, schedule: Q01DX009 (ip), vehicle: saline) was 91 % of control and the T/C [15] was 100 % of control. For the same compound, the T/C (dose: 200.0 mg/kg/injection, schedule: Q01DX009 (ip), vehicle: saline) was 95 % of control, the T/C [16] was 100 % of control and the T/C [17] was 97 % of control.
With `CCCCCCCCCCCCCCCCCCNC(=S)N(C)C` the T/C [4] was 89 % of control, the T/C [6] was 86 % of control and the T/C [8] was 89 % of control.
In the case of `O=C(NCCO)Nc1cccc2ccccc12`, the T/C [9] is reported as 95 % of control, the T/C [10] is reported as 95 % of control and the T/C [11] is reported as 90 % of control.
`c1cc[c]([Ge]([c]2ccccc2)([c]2ccccc2)[c]2cc[c]([Ge]([c]3ccccc3)([c]3ccccc3)[c]3ccccc3)cc2)cc1` was tested, and the T/C (dose: 100.0 mg/kg/injection, schedule: Q04DX002 (ip), vehicle: saline with Tween-80) was 97 % of control, the T/C (dose: 200.0 mg/kg/injection, schedule: Q04DX002 (ip), vehicle: saline with Tween-80) was 87 % of control and the T/C (dose: 400.0 mg/kg/injection, schedule: Q04DX002 (ip), vehicle: saline with Tween-80) was 91 % of control.
`[O-][N+](=C\c1ccccc1)/[N+]([O-])=C\c1ccccc1` was tested, and the T/C [9] was 98 % of control, the T/C [10] was 95 % of control and the T/C [11] was 98 % of control.
`S=C(C/C=C/CC(=S)SN(c1ccccc1)c1ccccc1)SN(c1ccccc1)c1ccccc1` was tested, and the T/C [3] was 91 % of control, the T/C [5] was 95 % of control and the T/C [7] was 90 % of control.
With `O=C(CC1C=CCC1)NCc1ccccc1` (stereo not given) the T/C (dose: 75.0 mg/kg/injection, schedule: Q01DX001 (ip), vehicle: saline) was 101 % of control, the T/C (dose: 150.0 mg/kg/injection, schedule: Q01DX001 (ip), vehicle: saline) was 95 % of control and the T/C (dose: 300.0 mg/kg/injection, schedule: Q01DX001 (ip), vehicle: saline) was 93 % of control.
In the case of `CCCCCCCCCCCCCCCC(=O)N(CCCN)CCCN(CCCN)C(=O)CCCCCCCCCCCCCCC`, the T/C [15] is reported as 98 % of control.
In the case of `CCCCC(=O)N/N=C/c1ccccc1OCC`, the T/C [9] is reported as 102 % of control, the T/C [10] is reported as 107 % of control and the T/C [11] is reported as 93 % of control.
With `O=C1c2ccccc2C(=O)N1c1ccccc1` the T/C [3] was 98 % of control, the T/C [12] was 91 % of control and the T/C [5] was 98 % of control. For the same compound, the T/C [13] was 94 % of control, the T/C [7] was 95 % of control and the T/C [14] was 88 % of control.
With `O=C(OCCBr)c1ccc(Cl)cc1` the T/C [15] was 101 % of control, the T/C [16] was 97 % of control and the T/C [17] was 103 % of control.
In the case of `CCOC(=O)C(C)N1C(=O)c2ccccc2C1=O` (stereo not given), the T/C [12] is reported as 100 % of control, the T/C [13] is reported as 104 % of control and the T/C [14] is reported as 100 % of control.
`O=C1NC(=O)C2C3CCC(C12)C3C(c1ccccc1)c1ccccc1` (stereo not given) was tested, and the T/C [1] was 106 % of control, the T/C (dose: 200.0 mg/kg/injection, schedule: Q01DX001 (ip), vehicle: carboxymethylcellulose (CMC)) was 95 % of control and the T/C [2] was 103 % of control.
